Source: ChEMBL document CHEMBL3875181, “Recent discovery of non-nucleobase thymidine phosphorylase inhibitors targeting cancer” (Eur J Med Chem, 2016)

Assays:
Thymidine phosphorylase [1] = biological target: T1, Thymidine phosphorylase (Escherichia coli K-12, UniProt P07650); experiment: Inhibition of Escherichia coli K12 thymidine phosphorylase expressed in Escherichia coli preincubated for 10 mins followed by substrate addition measured up to 30 mins by spectrophotometric method
[2] = biological target: Thymidine phosphorylase (Escherichia coli K-12) (UniProt P07650); experiment: Potency index, ratio of 7-DX IC50 to compound IC50 for Escherichia coli K12 thymidine phosphorylase expressed in Escherichia coli
Thymidine phosphorylase [3] = biological target: T1, Thymidine phosphorylase; experiment: Inhibition of Escherichia coli K12 thymidine phosphorylase expressed in Escherichia coli using thymidine as substrate addition measured up to 20 mins by Uv-vis spectrophotometric method
Thymidine phosphorylase [4] = biological target: T2, Thymidine phosphorylase (Homo sapiens, UniProt P19971); experiment: Inhibition of human thymidine phosphorylase using thymidine as substrate preincubated for 30 mins followed substrate addition measured up to 30 mins
T2 sequence (P19971 whole entry): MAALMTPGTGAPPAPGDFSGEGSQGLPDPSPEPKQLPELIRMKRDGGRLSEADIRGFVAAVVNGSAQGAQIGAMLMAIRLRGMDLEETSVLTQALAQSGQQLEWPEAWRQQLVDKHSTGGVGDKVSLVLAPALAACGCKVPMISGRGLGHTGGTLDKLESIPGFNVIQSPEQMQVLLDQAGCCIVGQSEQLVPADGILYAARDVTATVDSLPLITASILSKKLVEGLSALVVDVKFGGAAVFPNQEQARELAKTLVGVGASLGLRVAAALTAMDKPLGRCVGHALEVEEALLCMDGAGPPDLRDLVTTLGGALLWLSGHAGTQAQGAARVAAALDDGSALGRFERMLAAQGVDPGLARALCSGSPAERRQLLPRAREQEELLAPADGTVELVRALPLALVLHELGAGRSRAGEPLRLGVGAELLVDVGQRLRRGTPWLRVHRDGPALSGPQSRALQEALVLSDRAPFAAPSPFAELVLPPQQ

[5] = Inhibition of Escherichia coli thymidine phosphorylase expressed in Escherichia coli preincubated for 10 mins followed by thymidine substrate addition measured for 10 mins by spectrophotometric method
[6] = Non-competitive inhibition of Escherichia coli thymidine phosphorylase expressed in Escherichia coli preincubated for 10 mins followed by varying levels of thymidine substrate addition by Lineweaver-Burk plot analysis

T1 sequence (P07650 whole entry): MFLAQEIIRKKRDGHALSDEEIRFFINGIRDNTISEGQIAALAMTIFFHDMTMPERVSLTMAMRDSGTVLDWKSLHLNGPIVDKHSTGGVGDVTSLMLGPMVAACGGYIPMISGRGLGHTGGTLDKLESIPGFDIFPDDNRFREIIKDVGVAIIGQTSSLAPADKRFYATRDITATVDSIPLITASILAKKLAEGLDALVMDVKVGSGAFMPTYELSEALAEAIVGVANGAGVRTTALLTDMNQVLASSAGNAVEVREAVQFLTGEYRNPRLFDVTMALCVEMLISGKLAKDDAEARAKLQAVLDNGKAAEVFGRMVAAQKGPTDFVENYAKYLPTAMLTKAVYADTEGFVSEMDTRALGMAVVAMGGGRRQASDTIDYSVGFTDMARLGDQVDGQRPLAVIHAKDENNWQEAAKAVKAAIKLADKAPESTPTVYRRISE
Thymidine phosphorylase (Escherichia coli K-12), sequence (P07650 whole entry, looked up): as the sequence (P07650 whole entry) above

For `Oc1ccc(-c2nnc(S)o2)cc1`, the IC50 (Thymidine phosphorylase [1]) was 38.2 µM.

In the case of `Oc1cc(O)c(/C=N/Nc2cnc3ccccc3n2)cc1O`, the IC50 (Thymidine phosphorylase [1]) is reported as 3.2 µM and the Ratio IC50 [2] is reported as 12.

Molecule `O=c1[nH]c(SCc2ccccc2)nc2nc(-c3ccccc3)nn12` has an IC50 (Thymidine phosphorylase [3]) of 111 µM.

With `O=C(OCc1cc(O)ccc1O[C@@H]1O[C@H](CO)[C@@H](O)[C@@H](OC(=O)c2ccc(O)cc2)[C@H]1O)c1ccccc1` the IC50 (Thymidine phosphorylase [4]) was 226 µM.

Molecule `O=c1[nH]c(-c2ccc(O)c(O)c2)nc2ccccc12` has an IC50 [5] of 42.9 µM and a Ki [6] of 52.3 µM.
